Reference: EP1495132B1, “SYSTEMIC MARKER FOR MONITORING ANTI-INFLAMMATORY AND ANTIOXIDANT ACTIONS OF THERAPEUTIC AGENTS” (priority 2002, dated 2003)
Where “and” joins values, the source holds several entries; their conditions need not be identical. Equal entries are not always repeated.

How the values were obtained:
Human neutrophils = test: Neutrophil-dependent initiation of lipid peroxidation of endogenous plasma lipids (PMA-activated neutrophils, LC/ESI/MS/MS); type: cell-based; conditions: 50% plasma, 2 h, 37° C, 1 mM NaN3, 300 nM catalase, 100 µM methionine, 100 µM ascorbate, 10 µg/ml SOD
Procedure: (§1) Neutrophils (1×10^6/ml) isolated from normal and MPO-deficient individuals were incubated at 37° C in HBSS supplemented with DTPA (100 µM, pH 7.0) and fresh human plasma (50% v/v). Cells were activated by addition of phorbol myristate acetate (PMA, 200 nM) and incubated for 2 h (Complete System). The content of 9-H(P)ODE and 9-H(P)ETE formed within endogenous plasma lipids were then determined by LC/ESI/MS/MS. Where indicated, human MPO (30 nM) was added to reaction mixtures. Data represent the mean ±SD of triplicate determinations. Each bar within a cluster for a given condition represents results obtained from independent experiments performed with neutrophil preparations from a distinct donor. PMN(MPO+), neutrophils isolated from normal subjects; PMN(MPO-), neutrophils isolated from MPO-deficient subjects. • Figs. 5(A-B) are graphs showing the characterization of neutrophil-dependent initiation of lipid peroxidation of endogenous plasma lipids. Neutrophils (1×10^6/ml) isolated from normal subjects (PMN) were incubated at 37° C in HBSS supplemented with DTPA (100 µM, pH 7.0) and fresh human plasma (50% v/v). Cells were activated by addition of phorbol myristate acetate (PMA, 200 nM) and then incubated for 2 h (Complete System). The content of 9-H(P)ODE and 9-H(P)ETE formed within endogenous plasma lipids were then determined by LC/ESI/MS/MS. Additions or deletions to the Complete System were as indicated. The final concentrations of additions to the Complete System were 30 nM human MPO, 1 mM NaN3, 300 nM catalase (Cat), 300 nM heat inactivated-catalase (hiCat), 100 µM methionine (Met), 100 µM ascorbate and 10 µg/ml superoxide dismutase (SOD). […] The content of 9-H(P)ODE and 9-H(P)ETE formed within endogenous plasma lipids were then determined by LC/ESI/MS/MS. […] The contents of the indicated oxidized PC species were determined in native LDL and LDL oxidized by the MPO-H2O2-NO2 system (NO2-LDL) using LC/ESI/MS/MS. […]

human MPO = biological target: T1, human MPO (Homo sapiens, UniProt P05164); test: MPO-dependent initiation of lipid peroxidation of endogenous plasma lipids (isolated MPO plus glucose/glucose oxidase); type: biochemical; conditions: 30 nM MPO, G/GO, 50% plasma, 12 h, 37° C; 1 mM NaN3, 300 nM catalase, 200 nM SOD, 100 µM methionine, 100 µM ascorbate
T1 construct: from tissue; host or cells: human leukocytes, for the MPO standard of the ELISA; the lipid peroxidation text only says 'isolated'/'purified' and cites the literature
Procedure: as §1, with “Neutrophils (1×10^6/ml) isolated from normal subjects (PMN) were incubated at 37° C in HBSS supplemented with DTPA (100 µM, pH 7.0) and fresh human plasma (50% v/v). Cells were activated by addition of phorbol myristate acetate (PMA, 200 nM) and then incubated for 2 h (Complete System).” left out, “LC/ESI/MS/MS.” for “LC/ESI/MS/MS. Additions or deletions to the Complete System were as indicated. The final concentrations of additions to the Complete System were 30 nM human MPO, 1 mM NaN3, 300 nM catalase (Cat), 300 nM heat inactivated-catalase (hiCat), 100 µM methionine (Met), 100 µM ascorbate and 10 µg/ml superoxide dismutase (SOD).”

[1] = tested on: MPO and multiple distinct oxidation products formed by MPO; test: Example 14: plasma MPO and oxidation products, ARB therapy; type: in vivo, human; conditions: 16 weeks of losartan 25 mg PO QD, n=16
Source text: Angiotensin receptor blocking agents are a new therapy used for treatment of hypertension. They act upon the same biochemical axis as ACEI. Accordingly, they promote clinical benefits beyond those linked to blood pressure reduction - those related to presumed anti-inflammatory and antioxidant actions. However, no means for objectively monitoring these effects have been available. We hypothesized that monitoring levels of MPO and its oxidation products might serve as a way of quantifying the anti-inflammatory and antioxidant effects of ARBs. […] These studies underscore the potential utility of MPO and its oxidation products for monitoring systemic antioxidant and anti-inflammatory effects of therapeutic interventions.

[2] = tested on: oxidation products produced by myeloperoxidase and nitric oxide-derived oxidants; test: Prospective intervention study: plasma protein-bound tyrosine oxidation products at baseline and after 12 weeks of atorvastatin; type: in vivo, human
Procedure: The population consisted of a consecutive sample of patients recruited from the Preventive Cardiology Clinic at the Cleveland Clinic Foundation from June 2001 until January 2002 who were eligible and consented to participate in the study. Patients 21 years of age and older without clinical evidence of CAD and with low-density lipoprotein cholesterol (LDL-C) levels ≥ 130mg/dL, despite at least 6-8 weeks of therapeutic lifestyle interventions, were eligible to participate in the study. Briefly at initial screening, a detailed medical history was obtained, a thorough physical examination was performed, and a fasting lipoprotein profile was obtained. Patients potentially eligible for the study received counseling on nutritional and exercise interventions. If after 6-8 weeks LDL-C remained ≥130mg/dL, patients were eligible for enrollment in the study. […] Patient with active liver disease or renal insufficiency defined as serum creatine levels of 1.8 mg per deciliter or greater were excluded. […] All patients gave written informed consent, and the Institutional Review Board at the Cleveland Clinic Foundation approved the study protocol.
Blood samples were collected into serum separator tubes (Case-control study) or EDTA tubes (Intervention study) from overnight fasted patients. Samples were centrifuged at 3500 rpm for 10 minutes, plasma/serum recovered, and aliquots stored at -80°C until analysis. Personnel blinded to clinical data performed all laboratory measurements. Lipoprotein/lipid profiles and high sensitivity C-reactive protein (CRP) measurements were performed using CDC standardized assays.
Protein-bound nitrotyrosine levels were determined by stable isotope dilution liquid chromatography-electrospray ionization tandem mass spectrometry based methods using an ion trap mass spectrometer (LCQ Deca, ThermoFinigann, San Jose, CA). […] Nitrotyrosine content in samples is expressed as the mole ratio between nitrotyrosine and the precursor amino acid tyrosine. […]

[3] = tested on: lipid levels and high-sensitivity CRP
Procedure: Wilcoxon rank-sum test was used to analyze the differences between measurements at baseline and 12 weeks. […] Approximate 95% confidence intervals were found using Fisher's r-to-z transform. Multiple regression analyses were performed to determine factors associated with changes in nitrotyrosine levels.
We performed a prospective, open-label study. The study cohort consisted of a consecutive sample of patients (n=35) recruited from the Preventive Cardiology Clinic at the Cleveland Clinic Foundation. Patients 21 years of age and older without clinical evidence of coronary artery disease and with LDL cholesterol (LDL-C) levels 130 mg per deciliter or greater, despite at least 6-8 weeks of therapeutic lifestyle interventions, were eligible to participate in the study. Briefly, at initial screening, a detailed medical history was obtained, a thorough physical examination was performed, and a fasting lipoprotein profile was obtained. Patients potentially eligible for the study received counseling on nutritional and exercise interventions. If after 6-8 weeks LDL-C remained above 130 mg/dL, patients were eligible for enrollment in the study. […] Fasting morning plasma samples were collected prior to initiation of therapy (baseline), and following 12 weeks of therapy. Patients with active liver disease or renal insufficiency defined as a serum creatinine level of 1.8 mg per deciliter or greater were excluded. […] All patients gave written informed consent, and the Institutional Review Board at the Cleveland Clinic Foundation approved the study protocol.
Blood samples were collected into EDTA tubes from fasting patients. Samples were centrifuged at 3500 rpm for 10 minutes at 4°C, and stored under conditions to minimize artificial oxidation (i.e., with antioxidant cocktail, under inert atmosphere). Briefly, plasma was removed and allocated into tubes containing butylated hydroxytoluene (100µM final) and diethylenetriaminepentaacetic acid (100µM final) overlaid with argon and stored at -80°C until analysis. Standard methods were used to measure lipid levels and high-sensitivity CRP.
Data are presented as mean ± SD, and significance level was set at p < 0.05. Wilcoxon rank-sum test was used to analyze the differences between NO2Tyr, diTyr, and CRP at baseline and 12 weeks, as they were not normally distributed.

MPO = test: Example 15: plasma levels of MPO, statin therapy; type: in vivo, human; conditions: n=27
[4] = tested on: MPO-generated markers of protein and lipid oxidation; test: Example 10: MPO-generated oxidation markers and hs-CRP after 12 weeks of atorvastatin (Figs. 14, 15); type: in vivo, human; conditions: baseline vs 12 weeks of atorvastatin 10 mg PO QHS
[5] = tested on: oxidation products produced by myeloperoxidase and nitric oxide-derived oxidants; test: Prospective intervention study: plasma protein-bound tyrosine oxidation products at baseline and after 12 weeks of atorvastatin; type: in vivo, human; remark: listed apart in the source
[6] = tested on: MPO and multiple distinct oxidation products formed by MPO; test: Example 13: plasma MPO and oxidation products, ACEI therapy; type: in vivo, human; conditions: 16 weeks of lisinopril 20 mg PO QD, n=9
Procedure: Subjects (n=9) had plasma drawn at baseline, and then 16 weeks following therapy with lisinopril (Zestril, 20 mg PO QD). Plasma levels of MPO, protein-bound nitrotyrosine, chlorotyrosine, dityrosine, and 9-H(P)ETE and F2Isoprostantes were monitored.

[7] = baseline to 12 weeks, atorvastatin 10 mg per day, n = 35
[8] = plasma protein-bound, 12 Weeks of atorvastatin 10 mg orally per day, n = 35, mean ± SD
[9] = reduction, baseline to 12 weeks, atorvastatin 10 mg per day, given unsigned
[10] = 12 Weeks of atorvastatin 10 mg orally per day, n = 35, mean ± SD
[11] = reduction, baseline to 12 weeks, atorvastatin 10 mg per day, given unsigned, not significant
[12] = n=35, LDL cholesterol ≥ 130mg/dL

T1 sequence (P05164 279-745 limits assumed): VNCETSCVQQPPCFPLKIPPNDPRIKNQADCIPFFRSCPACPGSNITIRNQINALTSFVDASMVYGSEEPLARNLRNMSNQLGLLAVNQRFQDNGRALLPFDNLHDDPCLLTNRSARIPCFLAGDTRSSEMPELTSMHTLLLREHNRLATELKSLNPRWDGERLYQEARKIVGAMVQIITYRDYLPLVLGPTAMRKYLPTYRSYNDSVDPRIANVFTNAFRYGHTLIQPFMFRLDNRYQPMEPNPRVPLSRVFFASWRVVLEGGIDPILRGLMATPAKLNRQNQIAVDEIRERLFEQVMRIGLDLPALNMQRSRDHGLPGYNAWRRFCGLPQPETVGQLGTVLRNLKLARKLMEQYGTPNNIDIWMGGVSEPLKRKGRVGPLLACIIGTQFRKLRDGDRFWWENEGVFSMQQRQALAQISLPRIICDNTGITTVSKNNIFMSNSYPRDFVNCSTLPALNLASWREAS
T1 sequence (P05164 165-273 limits assumed): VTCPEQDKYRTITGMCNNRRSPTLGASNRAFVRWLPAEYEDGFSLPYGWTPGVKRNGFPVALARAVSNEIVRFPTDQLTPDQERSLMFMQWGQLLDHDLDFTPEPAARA

CSCC[C@H](N)C(=O)O [methionine]
neutrophil-dependent peroxidation of endogenous plasma lipids (9-H(P)ODE and 9-H(P)ETE) (Human neutrophils): failed to attenuate
MPO-dependent lipid oxidation in plasma (9-H(P)ODE and 9-H(P)ETE) (human MPO): not affected

CCCCc1nc(Cl)c(CO)n1Cc1ccc(-c2ccccc2-c2nn[nH]n2)cc1 [losartan]
Nitrotyrosine ([1]; plasma protein-bound): 8.1 umol/mol
9-H(P)ETE ([1]; plasma): 0.27 mmol/mol
Chlorotyrosine ([1]; plasma): 14.3 umol/mol
Dityrosine ([1]; plasma): 28.5 umol/mol
F2Isoprostane ([1]; plasma): 0.68 mmol/mol
MPO ([1]; plasma): 9.9 ng/mL

CC(C)c1c(C(=O)Nc2ccccc2)c(-c2ccccc2)c(-c2ccc(F)cc2)n1CC[C@@H](O)C[C@@H](O)CC(=O)O [Atorvastatin, atorvastatin]
Nitrotyrosine, absolute change [2, 7]: -4 µmol/mol tyrosine
Nitrotyrosine [2, 8]: 11 ± 5 µmol/mol tyrosine
Nitrotyrosine, % change [2, 9]: 25%
Apolipoprotein B-100 [3, 10]: 96 ± 21 mg/dL
C-reactive protein [3, 10]: 0.23 ± 0.33 mg/dL and 0.23 mg/dL
Total cholesterol level [3, 10]: 190 ± 28 mg/dL
Apolipoprotein B-100, absolute change [3, 7]: -39 mg/dL
C-reactive protein, absolute change [3, 7]: -0.2 mg/dL
Total cholesterol, absolute change [3, 7]: -63 mg/dL
Triglycerides, absolute change [3, 7]: -14 mg/dL
Triglycerides ([3]; fasting, 12 Weeks of atorvastatin 10 mg orally per day, n = 35, mean ± SD): 132 ± 81 mg/dL
Apolipoprotein B-100, % change [3, 9]: 29%
Total cholesterol, % change [3, 9]: 25%
C-reactive protein, % change [3, 11]: 11%
Triglycerides, % change [3, 11]: 10%
MPO (MPO; plasma, 16 weeks of Atorvastatin 10 mg PO QD): 17.3 ± 4.8 ng/mL
MPO, % change (MPO; reduction, baseline to 16 weeks of Atorvastatin 10 mg PO QD, given unsigned): 12.2%
reduction in dityrosine [4, 12]: 30%
reduction in nitrotyrosine [4, 12]: 24%
decrease in hs-CRP ([4]; n=35, failed to reach significance): 11%
Chlorotyrosine, absolute change [5, 7]: -6 µmol/mol tyrosine
Dityrosine, absolute change [5, 7]: -11 µmol/mol tyrosine
ortho-tyrosine, absolute change [5, 7]: -8 µmol/mol tyrosine
Chlorotyrosine [5, 8]: 13 ± 4 µmol/mol tyrosine
Dityrosine [5, 8]: 23 ± 8 µmol/mol tyrosine
ortho-tyrosine [5, 8]: 81 ± 40 µmol/mol tyrosine
Chlorotyrosine, % change [5, 9]: 30%
Dityrosine, % change [5, 9]: 32%
ortho-tyrosine, % change [5, 11]: 9%

azide
neutrophil-dependent peroxidation of endogenous plasma lipids (9-H(P)ODE and 9-H(P)ETE) (Human neutrophils): complete inhibition
MPO-dependent lipid oxidation in plasma (9-H(P)ODE and 9-H(P)ETE) (human MPO): inhibited

NCCCC[C@H](N[C@@H](CCc1ccccc1)C(=O)O)C(=O)N1CCC[C@H]1C(=O)O [lisinopril]
Nitrotyrosine ([6]; plasma protein-bound): 10.3 µmol/mol
9-H(P)ETE ([6]; plasma): 0.21 mmol/mol
Chlorotyrosine ([6]; plasma): 15.0 µmol/mol
Dityrosine ([6]; plasma): 24.1 µmol/mol
F2Isoprostane ([6]; plasma): 0.72 mmol/mol
MPO ([6]; plasma): 8.8 ng/mL

O[C@H](CS)[C@H](O)CS (racemic) [dithiothreitol]
neutrophil-dependent peroxidation of endogenous plasma lipids (9-H(P)ODE and 9-H(P)ETE) (Human neutrophils): failed to attenuate
